Consider 19 molecules from ChEMBL document CHEMBL5154872 (Eur J Med Chem, 2022).

The structures appear in SMILES notation. In brackets after ≈: the same amount, converted by molar mass.

Data set [1] in a line: Solubility in PBS at pH 7.4. Type of data set: physicochemical.
Data set [2] can be described thus: Reactivation of mouse CTLL-2 cells pretreated with human PD-L1 assessed as increase in cell proliferation and measured by flow cytometry assay. Type of data set: functional, cell-based.
The nature of data set [3]: 1-Octanol/phosphate buffered-saline distribution coefficient, logD of compound at pH 7.4 measured after 2 hrs by LC-MS analysis. Type of data set: physicochemical.
Data set [4] in a line: Stability in CD-1 mouse plasma assessed as half-ife at 10 uM. It counts as ADME, cell-free.
Data set [5] deals with T1, Programmed cell death 1 ligand 1 (Homo sapiens, UniProt Q9NZQ7). The experiment in a line: Binding affinity towards His-tagged recombinant human PD-L1 measured by MST dimerization binding assay. It counts as single protein.
For data set [6], the target named is Programmed cell death protein 1/Programmed cell death 1 ligand 1 (Homo sapiens, UniProt Q9NZQ7). In words: Inhibition of human PD-1/PD-L1 interaction in CHO-K1 cells transfected with PD-1-YFP/SHP-2-CFP and measured by FRET assay. Type of data set: cell-based.
For data set [7], the target named is T1, Programmed cell death 1 ligand 1. The experiment in a line: Binding affinity towards His-tagged recombinant human PD-L1 measured by MicroScale Thermophoresis (MST) assay. For orientation: In MST a laser heats a spot of the sample, and binding alters the fluorescence response.

T1 sequence (Q9NZQ7 whole entry): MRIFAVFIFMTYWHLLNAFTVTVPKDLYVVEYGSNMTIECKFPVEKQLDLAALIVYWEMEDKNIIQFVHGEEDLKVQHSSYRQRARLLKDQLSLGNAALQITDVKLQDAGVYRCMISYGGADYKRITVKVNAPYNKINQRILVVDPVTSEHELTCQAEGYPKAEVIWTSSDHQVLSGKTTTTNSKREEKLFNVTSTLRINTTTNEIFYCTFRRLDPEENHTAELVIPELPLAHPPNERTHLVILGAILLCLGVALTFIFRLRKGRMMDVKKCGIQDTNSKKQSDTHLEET
Chain of Programmed cell death protein 1/Programmed cell death 1 ligand 1 (Q15116 whole entry): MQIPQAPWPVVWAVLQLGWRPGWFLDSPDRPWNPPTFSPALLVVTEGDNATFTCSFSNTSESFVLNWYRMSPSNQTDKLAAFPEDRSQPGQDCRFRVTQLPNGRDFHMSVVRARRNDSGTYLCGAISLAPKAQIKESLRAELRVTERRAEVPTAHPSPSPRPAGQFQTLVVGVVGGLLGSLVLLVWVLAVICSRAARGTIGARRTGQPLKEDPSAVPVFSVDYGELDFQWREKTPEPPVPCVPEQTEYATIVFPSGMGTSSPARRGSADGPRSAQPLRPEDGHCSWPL
Chain of Programmed cell death protein 1/Programmed cell death 1 ligand 1 (Q9NZQ7 whole entry): as the sequence (Q9NZQ7 whole entry) above

What is called solubility is the concentration that dissolves in the medium under given conditions. High values mean a readily soluble substance, low ones a poorly soluble substance. Usually IC50 stands for the concentration that gives 50% inhibition. The logD is lipophilicity at a set pH, counting ionised and neutral species. The term half-life denotes the time in which the quantity being followed falls by half. For orientation: Kd means the equilibrium constant for the complex coming apart. As to `CC1=NN(c2ccccn2)C(=O)C1`, in data set [1], the solubility was greater than 200 µM. In addition, the IC50 in data set [2] turned out to be 102 nM. Moreover, the pH-dependent lipophilicity (logD) at 2 h in data set [3] worked out at 0.85. Besides, the half-life at 10 µM in data set [4] came out at 16 min. Moreover, the Kd in data set [5] amounted to 53 nM.

Molecule `O=C1CC(c2ccc(C(F)(F)F)cc2)=NN1c1ccccn1` displayed an IC50 in data set [6] of 143 nM. Besides, the Kd in data set [7] was found to be 156 nM.

Regarding `O=C1CC(c2ccc(Cl)c(Cl)c2)=NN1c1ccccn1`, the Kd in data set [7] turned out to be 584 nM.

`Cc1ccc(C2=NN(c3ccccn3)C(=O)C2)cc1`: the Kd in data set [7] was found to be 1090 nM.

Turning to `O=C1CC(c2ccccc2F)=NN1c1ccccn1`, the Kd in data set [7] was greater than 500000 nM.

`COc1ccc(C2=NN(c3ccccn3)C(=O)C2)cc1OC`: the IC50 in data set [6] was 7.3 nM; in data set [2] it was 4.1 nM. This molecule also had a solubility in data set [1] of 183 µM (≈ 54.4 µg/mL). Further, the Kd in data set [7] stood at 1.19 nM; in data set [5], 0.7 nM. Besides, in data set [3], the logD at 2 h amounted to 2.19. Besides, the half-life at 10 µM in data set [4] was found to be 30 min.

In turn, `COc1ccc(C2=NN(c3ccccn3)C(=O)C2)cc1` showed a solubility in data set [1] of 199 µM (≈ 53.2 µg/mL). In data set [2], the IC50 is 75 nM. Moreover, the logD at 2 h in data set [3] stood at 2.82. Besides, in data set [4], the half-life at 10 µM was determined as 12 min. In addition, the Kd in data set [5] was determined as 2 nM.

`Cc1cccc(C2=NN(c3ccccn3)C(=O)C2)c1`: the Kd in data set [7] was greater than 500000 nM.

On to `CCC1=NN(c2ccccn2)C(=O)C1`, for which the Kd in data set [7] was greater than 500000 nM.

`O=C1CC(c2ccccc2Cl)=NN1c1ccccn1`: the Kd in data set [7] is greater than 500000 nM.

For `CC(C)(C)C1=NN(c2ccccn2)C(=O)C1`, the Kd in data set [7] was greater than 500000 nM.

Regarding `CCCCC1=NN(c2ccccn2)C(=O)C1`, the Kd in data set [7] is greater than 500000 nM.

Regarding `CCCC1=NN(c2ccccn2)C(=O)C1`, in data set [7], the Kd was greater than 500000 nM.

In the case of `O=C1CC(C23CC4CC(CC(C4)C2)C3)=NN1c1ccc(Cl)cc1Cl`, the results for the IC50 in data set [6] and in data set [2] were 9 nM and 54 nM, respectively. In data set [1], the concentration in solution (solubility) came to 1.9 µM (≈ 0.69 µg/mL). The molecule also gave a logD at 2 h in data set [3] of 4.28. Further, the half-life at 10 µM in data set [4] came out at 31 min. Besides, the dissociation constant Kd in data set [5] stood at 24 nM.

Turning to `CC(C)C1=NN(c2ccccn2)C(=O)C1`, the Kd in data set [7] is greater than 500000 nM.

In the case of `O=C1CC(c2ccccn2)=NN1c1ccccn1`, the Kd in data set [7] was greater than 500000 nM.

Regarding `COc1ccccc1C1=NN(c2ccccn2)C(=O)C1`, the solubility in data set [1] was 80.9 µM (≈ 21.6 µg/mL). Also, in data set [2], the IC50 turned out to be 14 nM. Moreover, the logD at 2 h in data set [3] was 2.56. The half-life at 10 µM in data set [4] was 10.9 min. In addition, the Kd in data set [5] stood at 46 nM.

Consider `Cc1ccccc1C1=NN(c2ccccn2)C(=O)C1`, for which, in data set [7], the Kd is greater than 500000 nM.

Take `O=C1CC(c2cccc(Cl)c2)=NN1c1ccccn1`: the Kd in data set [7] was greater than 500000 nM.
